Assay results: US8541587B2, “Lysophosphatidic acid receptor antagonists” (Amira Pharmaceuticals, Inc., priority 2011, dated 2013)

How the values were obtained:
human LPA1 receptor = molecular target: T1, human LPA1 receptor (Homo sapiens, UniProt Q92633); assay: LPA1 binding (GTPγS binding assay, membranes of CHO cells expressing human LPA1); assay type: biochemical; details: 900 nM LPA, [35S]-GTPγS
T1 construct: the full-length cDNA for human LPA1 was obtained by PCR of the reverse transcription reaction; expressed in transfected cells
T1 sequence (Q92633 whole entry): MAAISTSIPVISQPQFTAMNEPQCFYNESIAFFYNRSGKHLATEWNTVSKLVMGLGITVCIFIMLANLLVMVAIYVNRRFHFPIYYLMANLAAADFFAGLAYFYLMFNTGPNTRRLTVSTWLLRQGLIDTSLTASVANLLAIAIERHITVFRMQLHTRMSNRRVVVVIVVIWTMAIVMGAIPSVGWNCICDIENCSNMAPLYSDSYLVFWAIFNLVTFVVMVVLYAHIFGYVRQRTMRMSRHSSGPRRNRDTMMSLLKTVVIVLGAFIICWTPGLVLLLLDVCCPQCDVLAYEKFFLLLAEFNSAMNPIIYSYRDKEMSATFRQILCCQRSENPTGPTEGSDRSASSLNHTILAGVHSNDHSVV
Protocol: A 1.1 kb cDNA encoding the human LPA1 receptor was cloned from human lung. Human lung RNA (Clontech Laboratories, Inc. USA) was reverse transcribed using the RETROscript kit (Ambion, Inc.) and the full-length cDNA for human LPA1 was obtained by PCR of the reverse transcription reaction. The nucleotide sequence of the cloned human LPA1 was determined by sequencing and confirmed to be identical to the published human LPA1 sequence (An et al. Biochem. Biophys. Res. Commun. 231:619 (1997). The cDNA was cloned into the pCDNA5/FRT expression plasmid and transfected in CHO cells using lipofectamine 2000 (Invitrogen Corp., USA). Clones stably expressing human LPA1 were selected using hygromycin and identified as cells that show Ca-influx in response to LPA.
The ability of a compound to inhibit binding of GTP to LPA1 is assessed via a membrane GTPγS assay. CHO cells stably expressing the recombinant human LPA1 receptor are resuspended in 10 mM Hepes, 7.4 containing 1 mM DTT, lysed and centrifuged at 75,000×g to pellet the membranes. The membranes are resuspended in 10 mM Hepes, 7.4 containing 1 mM DTT and 10% glycerol. Membranes (˜25 μg per well) are incubated in 96-well plates with 0.1 nM [^35S]-GTPγS, 900 nM LPA, 5 μM GDP, and test compound in Assay Buffer (50 mM Hepes, pH 7.4, 100 mM NaCl, 10 mM MgCl2, 50 μg/ml saponin and 0.2% fatty-acid free human serum albumin) for 30 minutes at 30° C. The reactions are terminated by rapid filtration through Whatman GF/B glass fibre filter plates. The filter plates are washed 3 times with 1 ml cold Wash Buffer (50 mM Hepes, 7.5, 100 mM NaCl and 10 mM MgCl2) and dried. Scintillant is then added to the plates and the radioactivity retained on the filters is determined on a Packard TopCount (Perkin Elmer). Specific binding is determined as total radioactive binding minus non-specific binding in the absence of the ligand (900 nM LPA). IC50s were determined using Graphpad prism analysis of drug titration curves.

human LPA2 receptor = molecular target: T2, human LPA2 receptor (Homo sapiens, UniProt Q9HBW0); assay: LPA2 calcium flux assay (B103 cells transiently expressing human LPA2); assay type: cell-based; details: read-out: LPA2 Binding IC50
T2 construct: The full-length cDNA fragment for human LPA2 was obtained by PCR from the vector; expressed in transfected cells; host or cells: B103 cells (pCDNA3.1, transient, lipofectamine 2000)
T2 sequence (Q9HBW0 whole entry, the tested form may be a part): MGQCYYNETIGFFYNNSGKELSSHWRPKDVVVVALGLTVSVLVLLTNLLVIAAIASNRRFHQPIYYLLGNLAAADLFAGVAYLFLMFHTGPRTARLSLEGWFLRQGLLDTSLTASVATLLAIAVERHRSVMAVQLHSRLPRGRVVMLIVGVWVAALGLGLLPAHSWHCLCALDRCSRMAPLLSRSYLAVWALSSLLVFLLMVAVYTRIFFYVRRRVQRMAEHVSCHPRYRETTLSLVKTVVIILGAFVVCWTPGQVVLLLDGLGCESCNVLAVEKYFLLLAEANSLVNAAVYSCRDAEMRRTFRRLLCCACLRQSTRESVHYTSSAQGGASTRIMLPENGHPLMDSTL
Protocol: A vector containing the human LPA2 receptor cDNA was obtained from the Missouri S&T cDNA Resource Center (www.cdna.org). The full-length cDNA fragment for human LPA2 was obtained by PCR from the vector. The nucleotide sequence of the cloned human LPA2 was determined by sequencing and confirmed to be identical to the published human LPA2 sequence (NCBI accession number NM_004720). The cDNA was cloned into the pCDNA3.1 expression plasmid and transfected into B103 cells (Invitrogen Corp., USA) by seeding cells in a 96-well poly-D-lysine coated plate at 30,000-35,000 cells per well together with 0.2 μl lipofectamine 2000 and 0.2 μg of the LPA2 expression vector. Cells were cultured overnight in complete media before being assayed for LPA-induced Ca-influx.
(§1) Following an overnight culture with lipofectamine 2000 and the LPA2 expression vector, the B103 cells are washed once with PBS then serum starved for 4 hours. A calcium indicator dye (Calcium 4, Molecular Devices) in assay buffer (HBSS with Ca^2+ and Mg^2+ and containing 20 mM Hepes and 0.3% fatty-acid free human serum albumin) is added to each well and incubation continued for 1 hour at 37° C. 10 μl of test compounds in 2.5% DMSO are added to the cells and incubation continued at room temperature for 30 minutes. Cells are the stimulated by the addition of 10 nM LPA and intracellular Ca^2+ measured using the Flexstation 3 (Molecular Devices). IC50s are determined using Graphpad prism analysis of drug titration curves.

human LPA3 receptor = molecular target: T3, human LPA3 receptor (Homo sapiens, UniProt Q9UBY5); assay: LPA3 calcium flux assay (CHO cells stably expressing human LPA3); assay type: cell-based; details: read-out: LPA3 Binding IC50
T3 construct: The full-length cDNA fragment for human LPA3 was obtained by PCR from the vector; expressed in transfected cells
T3 sequence (Q9UBY5 1-353): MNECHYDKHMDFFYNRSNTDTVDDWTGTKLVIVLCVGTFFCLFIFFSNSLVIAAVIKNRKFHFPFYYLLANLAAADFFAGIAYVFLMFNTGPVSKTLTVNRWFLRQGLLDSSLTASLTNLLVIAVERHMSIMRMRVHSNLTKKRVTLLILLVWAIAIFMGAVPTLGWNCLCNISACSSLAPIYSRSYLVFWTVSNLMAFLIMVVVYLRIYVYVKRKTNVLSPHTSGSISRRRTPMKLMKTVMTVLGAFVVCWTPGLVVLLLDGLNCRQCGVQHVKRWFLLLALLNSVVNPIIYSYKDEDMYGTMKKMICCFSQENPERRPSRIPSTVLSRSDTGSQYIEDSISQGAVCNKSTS
Protocol: A vector containing the human LPA3 receptor cDNA was obtained from the Missouri S&T cDNA Resource Center (www.cdna.org). The full-length cDNA fragment for human LPA3 was obtained by PCR from the vector. The nucleotide sequence of the cloned human LPA3 was determined by sequencing and confirmed to be identical to the published human LPA3 sequence (NCBI accession number NM_012152). The cDNA was cloned into the pCDNA5/FRT expression plasmid and transfected in CHO cells using lipofectamine 2000 (Invitrogen Corp., USA). Clones stably expressing human LPA3 were selected using hygromycin and identified as cells that show Ca-influx in response to LPA.
as §1, with “Human LPA1 or LPA3 expressing CHO cells are seeded at 20,000-45,000 cells per well in a 96-well poly-D-lysine coated plate one or two days before” for “Following an overnight culture with lipofectamine 2000 and”, “assay. Prior to” for “LPA2 expression vector,”, “assay, the” for “B103”, “PBS and” for “PBS”, “cultured in serum-free media overnight. On the day of the assay, a” for “serum starved for 4 hours. A”

[1] = system: A2058 human melanoma cells; assay: LPA1 chemotaxis assay; assay type: cell-based; details: 100 nM LPA, read-out: IC50, inhibition of LPA-driven chemotaxis
Protocol: Chemotaxis of the A2058 human melanoma cells was measured using the Neuroprobe ChemoTx® System plates (8 μm pore size, 5.7 mm diameter sites). The filter sites were coated with 0.001% fibronectin (Sigma) in 20 mM Hepes, pH 7.4 and allowed to dry. A2058 cells were serum-starved for 24 hours, then harvested with Cell Stripper and resuspended in DMEM containing 0.1% fatty-acid-free bovine serum albumin (BSA) to a concentration of 1×10^6/ml. Cells were mixed with an equal volume of test compound (2×) in DMEM containing 0.1% fatty-acid-free BSA and incubated at 37° C. for 15 minutes. LPA (100 nM in DMEM containing 0.1% fatty-acid-free BSA) or vehicle was added to each well of the lower chamber and 50 μl of the cell suspension/test compound mix was applied to the upper portion of the ChemoTx plate. Plates were incubated at 37° C. for three hours and then the cells removed from the upper portion by rinsing with PBS and scraping. The filter was dried then stained with HEMA 3 Staining System (Fisher Scientific). The absorbance of the filter was read at 590 nm and IC50s were determined using Symyx Assay Explorer.

IC50 (human LPA1 receptor)	IC50 (human LPA2 receptor)	IC50 (human LPA3 receptor)	IC50 [1]	Compound
< 300 nM	< 300 nM	< 300 nM	< 500 nM	Cc1ccccc1-c1cccc(Nc2c(C)noc2-c2ccc(-c3ccc(C4(C(=O)O)CC4)cc3)cc2)n1 [Compound 1, 1-(4′-{3-Methyl-4-[6-(2-methyl-phenyl)-pyridin-2-ylamino]-isoxazol-5-yl}-biphenyl-4-yl)-cyclopropanecarboxylic acid]
< 300 nM	< 300 nM	< 300 nM	< 500 nM	Cc1cccc(-c2cccc(Nc3c(C)noc3-c3ccc(-c4ccc(C5(C(=O)O)CC5)cc4)cc3)n2)c1 [Compound 2, 1-(4′-{3-Methyl-4-[6-(3-methyl-phenyl)-pyridin-2-ylamino]-isoxazol-5-yl}-biphenyl-4-yl)-cyclopropanecarboxylic acid]
< 300 nM	< 300 nM	< 300 nM	< 500 nM	Cc1ccc(-c2cccc(Nc3c(C)noc3-c3ccc(-c4ccc(C5(C(=O)O)CC5)cc4)cc3)n2)cc1 [Compound 3, 1-(4′-{3-Methyl-4-[6-(4-methyl-phenyl)-pyridin-2-ylamino]-isoxazol-5-yl}-biphenyl-4-yl)-cyclopropanecarboxylic acid]
< 300 nM	< 300 nM	< 300 nM	< 500 nM	Cc1ccccc1-c1cncc(Nc2c(C)noc2-c2ccc(-c3ccc(C4(C(=O)O)CC4)cc3)cc2)c1 [Compound 4, 1-(4′-{3-Methyl-4-[5-(2-methyl-phenyl)-pyridin-3-ylamino]-isoxazol-5-yl}-biphenyl-4-yl)-cyclopropanecarboxylic acid]
< 300 nM	< 300 nM	< 300 nM	< 500 nM	Cc1cccc(-c2cncc(Nc3c(C)noc3-c3ccc(-c4ccc(C5(C(=O)O)CC5)cc4)cc3)c2)c1 [Compound 5, 1-(4′-{3-Methyl-4-[5-(3-methyl-phenyl)-pyridin-3-ylamino]-isoxazol-5-yl}-biphenyl-4-yl)-cyclopropanecarboxylic acid]
< 300 nM	< 300 nM	< 300 nM	< 500 nM	Cc1ccc(-c2cncc(Nc3c(C)noc3-c3ccc(-c4ccc(C5(C(=O)O)CC5)cc4)cc3)c2)cc1 [Compound 6, 1-(4′-{3-Methyl-4-[5-(4-methyl-phenyl)-pyridin-3-ylamino]-isoxazol-5-yl}-biphenyl-4-yl)-cyclopropanecarboxylic acid]
< 300 nM	< 300 nM	< 300 nM	–	Cc1cccc(-c2cccc(Nc3c(C)noc3-c3ccc(-c4ccc(C5(C(=O)NS(C)(=O)=O)CC5)cc4)cc3)n2)c1 [Compound 8, N-(1-{4′-[3-Methyl-4-(6-(3-methyl-phenyl)-pyridin-2-ylamino)-isoxazol-5-yl]-biphenyl-4-yl}-cyclopropanecarbonyl)-methanesulfonamide]
< 300 nM	< 300 nM	< 300 nM	–	Cc1cccc(-c2cncc(Nc3c(C)noc3-c3ccc(-c4ccc(C5(C(=O)NS(C)(=O)=O)CC5)cc4)cc3)c2)c1 [Compound 11, N-(1-{4′-[3-Methyl-4-(5-(3-methyl-phenyl)-pyridin-3-ylamino)-isoxazol-5-yl]-biphenyl-4-yl}-cyclopropanecarbonyl)-methanesulfonamide]
